Two substances from patent publication US20060241108A1, “Substituted phenoxazines and acridones as inhibitors of AKT” (St. Jude Children's Research Hospital, priority 2005, published 2006) can be followed below.

Type in all cases: cell-based, human
For test [1], the system named is AKT. As to the kind of experiment: Inhibition of IGF-I stimulated AKT phosphorylation (Ser473) in Rh1 cells, Western blot. The conditions noted are these: 5 μM, 1 hour, serum starved Rh1 cells, IGF-I 10 ng/ml 10 minutes; average of two experiments. As to the method: Cell lines and growth conditions. The human cell lines Rh1, Rh18, and Rh30 (ATCC Deposit # CRL 2061) have been described, e.g., by Hazelton et al. Cancer Res 1987;47:4501-4507 and Hosoi et al. Cancer Res. 1999;59:886-894. Rh1, Rh18 and Rh30 cells can each be grown in antibiotic free RPMI-1640 medium (available from BioWhittaker, Walkersville, Md.), supplemented with 10% fetal bovine serum (available from HyClone Laboratories, Logan, Utah) and 2 mM L-glutamine (available from BioWhittaker, Walkersville, Md.) at 37° C. in an atmosphere of 5% CO2. For serum free experiments, cells can be cultured in modified N2E (MN2E) medium (DMEM/F-12, 1:1 mixture) (Sigma, St. Louis, Mo.) supplemented with 1 μg/ml human holo transferrin, 30 nM sodium selenite, 20 nM progesterone, 100 μM putrescine, 30 nM vitamin E phosphate, and 50 μM ethanolamine. Cells in MN2E medium containing 5 μg/ml bovine fibronectin (available from Sigma, St. Louis, Mo.) are preferably plated, and allowed to attach overnight at 37° C. in a humidified, 5% CO2 atmosphere.
(§1) Cellular screening for inhibitors. Rh1, Rh18 and Rh30 cells can each be seeded at a density of 4×10^6/10-cm plate in serum-free medium for overnight attachment. The cells can then be exposed to 0.1% DMSO or to a test compound (for example, a phenoxazine or acridone compound) for one hour, then stimulated with Insulin-like growth factor-I (IGF-I) (10 ng/ml) for 10 minutes.
(§2) Western blot analysis. Cells are rapidly washed with ice-cold phosphate-buffered saline (PBS), placed on ice, and lysed in mammalian protein extraction reagent (M-PER; available from Pierce, Rockford, Ill.) containing one Complete™ mini protease inhibitor tablet (available from Boehringer Mannheim, Mannheim, Germany), 1 mM phenylmethylsulfonyl fluoride, 1 mM Na3VO4 and 1 mM NaF. Cellular debris is pelleted by centrifugation at 17,500×g for 10 minutes at 4° C. The protein concentration of the supernatants is measured by the bicinchoninic acid assay (e.g., using the BCA™ Protein Assay Kit, Pierce, Rockford, Ill., catalog number 23225 or 23227) using bovine serum albumin as the standard.
For the analysis of AKT, ERK-1/2, mTOR, p70S6 kinase, ribosomal protein S6 (rpS6 or S6), and glycogen synthase kinase 3 (GSK-3), equivalent amounts of protein can be separated on a 12% SDS-polyacrylamide gel (available from BioRad, Hercules, Calif.) by electrophoresis and subsequently transferred to a nitrocellulose membrane (also available from BioRad). After a 1 hour incubation in 1×TBS containing 0.05% Tween 20 and 5% blocking reagent (skim milk) (available from Upstate Biotechnology, Lake Placid, N.Y.) at room temperature, the wet nitrocellulose membranes are incubated with appropriate antibodies (available from Cell Signaling Technology, Beverly, Mass.): rabbit polyclonal antiserum specific for the phosphorylated Ser473 or Thr308 of AKT (dilution 1:1000); rabbit polyclonal antiserum specific for phosphorylated Thr202/Tyr204 of ERK-1/2 (dilution 1:1000); rabbit polyclonal antiserum specific for phosphorylated Ser2448 or Ser2481 of mTOR (dilution 1:1000); rabbit polyclonal antiserum specific for phosphorylated Thr389 of p70S6 kinase (dilution 1:4000); rabbit polyclonal antiserum specific for phosphorylated Ser235/236 of rpS6 (dilution 1:1000); or rabbit polyclonal antiserum specific for phosphorylated Ser21/9 of GSK-3α/β (dilution 1:1000). Horseradish peroxidase-conjugated goat anti-rabbit IgG antibody (dilution 1:10,000) can be used as the secondary antibody. Immunoreactive protein can be visualized using Renaissance chemiluminescence reagent (available from Life Science Products Inc., Boston, Mass.).
For these assays, Rh1 cells are seeded in serum-free medium for overnight attachment. The serum starved Rh1 cells are then exposed to 1-5 μM of a compound in Table I for 1 hour before stimulating with IGF-I (10 ng/ml) for 10 minutes. […]

In test [2] the test system is mTOR (Ser2448 and Ser2481), rpS6 (Ser235/236) and p70S6 kinase (Thr389). As to the kind of experiment: IGF-I induced phosphorylation of AKT downstream targets in Rh1 cells, Western blot. The conditions noted are these: 3.5 to 5.0 μM, 1 hour, Rh1 cells serum-free, IGF-I 10 minutes. As to the method:
as §1, §2
For the analysis of AKT, ERK-1/2, mTOR, p70S6 kinase, ribosomal protein S6 (rpS6 or S6), and glycogen synthase kinase 3 (GSK-3), equivalent amounts of protein can be separated on a 12% SDS-polyacrylamide gel (available from BioRad, Hercules, Calif.) by electrophoresis and subsequently transferred to a nitrocellulose membrane (also available from BioRad). […]

The subject of test [3] is AKT, mTOR and rpS6. As to the kind of experiment: IGF-1-induced phosphorylation of AKT, mTOR and rpS6 in serum-starved Rh18 cells. As to the method: as §1
as §2, with “standard. […]” for “standard.”

Test [4] relates to AKT, mTOR and rpS6. As to the kind of experiment: IGF-1-induced phosphorylation of AKT, mTOR and rpS6 in serum-starved Rh30 cells. As to the method:
as §1
as §2, with “standard. […]” for “standard.”

Test [5] concerns Rh1, Rh18 and/or Rh30 cells. As to the kind of experiment: Determination of apoptosis, cell line not specified for the result. From the text:
Determination of apoptosis.
Similar experiments can be performed using compounds that are relatively poor inhibitors of AKT in vitro but, preferably, are chemically similar to the phenoxazine or other compounds tested that are effective inhibitors of AKT. For example, the apoptosis of cells in response to the phenoxazine compound 12B or 20B, which are relatively poor inhibitors of AKT in vitro, can be compared to apoptosis of cells in response to the chemically similar compounds 10B and/or 15B, which are effective AKT inhibitors. In this way, a skilled practitioner can evaluate whether apoptosis observed in response to an effective AKT inhibitor (e.g., apoptosis observed in response to compound 10B or 15B) is due to a general toxic effect rather than AKT inhibition.

Turning to “10-[3′-[(β-hydroxyethyl)piperazino]propyl]-2-chlorophenoxazine [Compound 8B]”, in test [1], the “Inhibition (phosphorylation of AKT at Ser 473)” value is on record as “+++ (+++ ≈ 75% inhibition)”. Further, the “inhibition of IGF-I induced phosphorylation of mTOR, rpS6 and p70S6 kinase” value in test [2] is on record as “markedly inhibited”.
In the case of “10-(N-pyrrolidinoacetyl)-2-chlorophenoxazine [Compound 20B]”, in test [1], the “Inhibition (phosphorylation of AKT at Ser 473)” value is reported as “−−− (−−− <25% inhibition)”. Besides, the “block of IGF-1-induced phosphorylation of AKT, mTOR and rpS6” value in test [3] and in test [4] was “possible exception” each time. Also, the “induction of apoptosis” value in test [5] is recorded as “neither the compound 12B or 20B”.
